Measurements taken from patent US11414385B2, “Compounds and methods for treating, detecting, and identifying compounds to treat apicomplexan parasitic diseases” (The University of Chicago, priority 2015, dated 2022).
Read-outs that look alike come from different tables or passages of the source.

Tests used:
[1] = system: T. gondii tachyzoites (RH-YFP strain); assay: In vitro challenge assay for Toxoplasma tachyzoites (RH-YFP in HFF, fluorescence); assay type: cell-based, Toxoplasma gondii; conditions: Toxoplasma gondii; RH-YFP; read-out: Tachy IC50
Description: Human foreskin fibroblasts (HFF) were cultured on a flat, clear-bottomed, black 96-well plate to 90% to 100% confluence. IMDM (1×, [+] glutamine, [+] 25 mM HEPES, [+] Phenol red, 10% FBS [gibco, Denmark]) was removed from each well and replaced with IMDM-C (1×, [+] glutamine, [+] 25 mM HEPES, [−] Phenol red, 10% FBS)[Gibco, Denmark]). Type I RH parasites expressing Yellow Fluorescent Protein (RH-YFP) were lysed from host cells by double passage through a 27-gauge needle. Parasites were counted and diluted to 32,000/mL in IMDM-C. Fibroblast cultures were infected with 3200 tachyzoites of the Type I RH-YFP strain and returned to incubator at 37° C. for 1-2 hours to allow for infection. Diluted solutions of the compounds were made using IMDM-C, and 20 μl were added to each designated well, with triplicates for each condition. Controls included pyrimethamine/sulfadiazine (current standard of treatment), DMSO only, fibroblast only, and an untreated YFP gradient with 2 fold dilutions of the parasite. Cells were incubated at 37° C. for 72 hours. The plates were read using a fluorimeter (Synergy H4 Hybrid Reader, BioTek) To ascertain the amount of yellow fluorescent protein, in relative fluorescence units (RFU), as a measure of parasite burden after treatment. Compounds were not considered effective or pursued for further analysis if there were no signs of inhibition at 1 μM. Data was collected using Gen5 software and analyzed with Excel.
Protocol adapted from Fomovska, et. al. (18,19). Human foreskin fibroblasts (HFF) were cultured on a flat, clear-bottomed, black 96-well plate to 90% to 100% confluence. IMDM (1×, [+] glutamine, [+] 25 mM HEPES, [+] Phenol red, 10% FBS [gibco, Denmark]) was removed from each well and replaced with IMDM-C (1×, [+] glutamine, [+] 25 mM HEPES, [−] Phenol red, 10% FBS)[gibco, Denmark]). Type I RH parasites expressing Yellow Fluorescent Protein (RH-YFP) were lysed from host cells by double passage through a 27-gauge needle. Parasites were counted and diluted to 32,000/mL in IMDM-C. Fibroblast cultures were infected with 3200 tachyzoites of the Type I RH strain expressing Yellow Fluorescent Protein (RH-YFP) and returned to incubator at 37° C. for 1-2 hours to allow for infection (15). Various concentrations of the compounds were made using IMDM-C, and 20 μl were added to each designated well, with triplicates for each condition. Controls included pyrimethamine/sulfadiazine (current standard of treatment), 0.1% DMSO only, fibroblast only, and an untreated YFP gradient with 2 fold dilutions of the parasite. Cells were incubated at 37° C. for 72 hours. Plates were read using a fluorimeter (Synergy H4 Hybrid Reader, BioTek) to ascertain the amount of yellow fluorescent protein, in relative fluorescence units (RFU), as a measure of parasite burden after treatment. Data was collected using Gen5 software. IC50 was calculated by graphical analysis in Excel.
An initial screening assay of 10 μM, 1 μM, 100 nM, and 10 nM was performed. Compounds were not considered effective or pursued for further analysis if there were no signs of inhibition of tachyzoites at 1 μM. If compounds did appear to be effective at 1 μM, another experiment was conducted to assess effect at 1 μM, 500 nM, 250 nM, 125 nM, 62.5 nM, and 31.25 nM.
Protocol adapted from Fomovska, et. al. (Fomovska A, Huang Q, El Bissati K, Mui E J, Witola W H, Cheng G, et al. Novel N-Benzoyl-2-Hydroxybenzamide Disrupts Unique Parasite Secretory Pathway. Antimicrob Agents Chemother [Internet]. 2012 May [cited 2015 Jul. 8]; 56(5):2666-82; Fomovska A, Wood R D, Mui E, Dubey J P, Ferreira L R, Hickman M R, et al. Salicylanilide inhibitors of Toxoplasma gondii. J Med Chem. 2012 Oct. 11; 55(19):8375-91.). Human foreskin fibroblasts (HFF) were cultured on a flat, clear-bottomed, black 96-well plate to 90% to 100% confluence. […]

[2] = system: P. falciparum strains D6, TM91-C235, W2, C2B; assay: Malaria SYBR Green I-Based Fluorescence (MSF) Assay; assay type: cell-based, Plasmodium falciparum; conditions: Plasmodium falciparum
Description: Testing of P. falciparum: D6 is a drug sensitive strain from Sierra Leone, C235 is a multi-drug resistant strain from Thailand, W2 is a chloroquine resistant strain from Thailand, and C2B has resistance to a variety of drugs including atovaquone.
D6 is a drug sensitive strain from Sierra Leone, C235 is a multi-drug resistant strain from Thailand, W2 is a chloroquine resistant strain from Thailand, and C2B has resistance to a variety of drugs including atovaquone. These assays were performed as described.
(§1) Compound activity against P. falciparum, a causative agent of malaria, was tested using the Malaria SYBR Green I—Based Fluorescence (MSF) Assay. This; microtiter plate drug sensitivity assay uses the presence of malarial DNA as a measure of parasitic proliferation in the presence of antimalarial drugs or experimental compounds based on modifications of previously described methods by Plouffe et al (20) and Johnson et al. As the intercalation of SYBR Green I dye and its resulting fluorescence is relative to parasite growth, a test compound that inhibits the growth of the parasite will result in a lower fluorescence.
Selected compounds were examined for activity against four strains of P. falciparum: D6 (CDC/Sierra Leone), a drug-sensitive strain readily killed by chloroquine, TM91-C235, a multi-drug resistant strain resistant to chloroquine, W2, a chloroquine resistant strain from Thailand, and C2B has resistance to a variety of drugs including atovaquone.
D6 is a drug sensitive strain from Sierra Leone, C235 is a multi-drug resistant strain from Thailand, W2 is a chloroquine resistant strain from Thailand, and C2B has resistance to a variety of drugs including atovaquone. These assays were performed using standard protocols.
as §1, with “known in the art.” for “by Plouffe et al (20) and Johnson et al.”, “fluorescence. Selected compounds were examined for activity against four strains of P. falciparum: D6 (CDC/Sierra Leone), a drugsensitive strain readily killed by chloroquine, TM91-C235, a multi-drug resistant strain resistant to chloroquine, W2, a chloroquine resistant strain from Thailand, and C2B has resistance to a variety of drugs including atovaquone.” for “fluorescence.”

[3] = D6 strain, read-out: Pf D6 IC50
[4] = C2B strain, read-out: SYBR Green C2B IC50
[5] = D6 strain, read-out: SYBR Green D6 IC50
[6] = TM91C235 strain, read-out: SYBR Green C235 IC50
[7] = W2 strain, read-out: SYBR Green W2 IC50

| Compound | IC50 [1] [nM] | IC50 [2, 3] [nM] | IC50 [2, 4] [nM] | IC50 [2, 5] [nM] | IC50 [2, 6] [nM] | IC50 [2, 7] [nM] |
| --- | --- | --- | --- | --- | --- | --- |
| Cc1cc2[nH]c(C)c(-c3ccc(Oc4ccc(OC(F)(F)F)cc4)cc3)c(=O)n2n1 [JAG006, 2,5-dimethyl-6-(4 (4-(trifluoromethoxy)phenoxy)phenyl) pyrazolo[1,5-a]pyrimidin-7(4H)-one] | > 1000 | 290 |  |  |  |  |
| CSc1nc2[nH]c(C)c(-c3ccc(Oc4ccc(OC(F)(F)F)cc4)cc3)c(=O)n2n1 [JAG013, 5-methyl-2-(methylthio)-6-(4-(4-(trifluoromethoxy)phenoxy)phenyl)-[1,2,4]triazolo[1,5-a]pyrimidin-7(4H)-one] | > 1000 | 1310 | 1390 | 1310 | 2600 | 2350 |
| Cc1[nH]c2c(C#N)cnn2c(=O)c1-c1ccc(Oc2ccc(OC(F)(F)F)cc2)cc1 [JAG014, 5-methyl-7-oxo-6-(4-(4-(trifluoromethoxy)phenoxy)phenyl)-4,7-dihydropyrazolo[1,5-a]pyrimidine-3-carbonitrile] | > 1000 | 710 | 920 | 710 | 1350 | 1270 |
| Cc1[nH]c2cc(-c3ccccc3)nn2c(=O)c1-c1ccc(Oc2ccc(OC(F)(F)F)cc2)cc1 [JAG015, 5-methyl-2-phenyl-6-(4-(4-(trifluoromethoxy)phenoxy)phenyl) pyrazolo[1,5-a]pyrimidin-7(4H)-one] | > 1000 | > 20000 | > 20000 | > 20000 | > 20000 | > 20000 |
| Cc1[nH]c2c(c(=O)c1-c1ccc(Oc3ccc(Cl)cc3)cc1)CCCC2 [JAG50, 3-(4-(4-chlorophenoxy)phenyl)-2-methyl-5,6,7,8-tetrahydroquinolin-4(1H)-one] | 55 | 46.6 |  |  |  |  |
| CCC1CCc2c([nH]c(C)c(-c3ccc(Oc4ccc(OC(F)(F)F)cc4)cc3)c2=O)C1 (stereo not shown) [JAG121, 7-Ethyl-2-methyl-3(4-(4-trifluoromethoxyphenoxy)phenyl)-5,6,7,8-tetrahydroquinolin-4(1H)-one] | 100 |  |  |  |  |  |
| Cc1[nH]c2cnccc2c(=O)c1-c1ccc(Oc2ccc(OC(F)(F)F)cc2)cc1 [JAG129, 3(4-(4-trifluoromethoxyphenoxy)phenyl)-2-methyl-1,7-napthyrid-4(1H)-one] | 100 |  |  |  |  |  |
| Cc1[nH]c2c(c(=O)c1-c1ccc(Oc3ccc(OC(F)(F)F)cc3)cc1)CCC(C(F)(F)F)C2 (stereo not shown) [JAG162, 7-Trifluromethyl-2-methyl-3(4-(4-trifluoromethoxyphenoxy)phenyl)-5,6,7,8-tetrahydroquinolin-4(1H)-one] | 500 |  |  |  |  |  |
| Cc1[nH]c2ncnn2c(=O)c1-c1ccc(Oc2ccc(OC(F)(F)F)cc2)cc1 [MJM136, 5-methyl-6-(4-(4-(trifluoromethoxy)phenoxy)phenyl)-[1,2,4]triazolo[1,5-a]pyrimidin-7(4H)-one] | 1000 to 10000 | 200 | 380 | 200 | 580 | 550 |
